Measurements: patent publication US20210177992A1, “ANTICANCER FLUORESCENT SUBSTANCE DERIVED FROM NATURAL MATERIALS” (SEOUL NATIONAL UNIVERSITY R&DB FOUNDATION, priority 2017, published 2021)

What was measured:
[1] = system: MCF10A; test: Annexin V FACS apoptosis measurement; type: cell-based; conditions: MCF10A normal cell, 24 hours
Experimental: (§1) Cancer cell apoptotic effects of resveratrone and resveratrone glucoside (see U.S. Pat. No. 9,708,23762) were measured by FACS using Annexin-V binding to phosphatidiylserine (PS) which exists in the inner leaflet of the cytoplasmic membrane and is exposed to the outer leaflet of cell membrane during apoptosis.
(§2) In detail, apoptosis of normal cells or cancer cells, each treated with resveratrone or resveratrone glucoside, was evaluated by measuring signals of Alexa dye-conjugated annexin V using FACS. HeLa, MCF7, SW480, SW620, and HCC1954 which are cancer cells, and NIH3T3 and MCF10A which are normal cells, each treated with 50 μM resveratrone or 100 μM resveratrone glucoside, were cultured under conditions of 37° C. and 5% CO2 for 24 hours. Thereafter, media was removed, and the cells were washed with PBS buffer twice to remove remaining resveratrone or resveratrone glucoside. The cells were collected and centrifuged to remove supernatants. Annexin-bound buffer (10 mM HEPES, 140 mM NaCl, 2.5 mM CaCl2, pH 7.4) was added and resuspended. 5 μl of Alexa Fluor 647-conjugated annexin V was added to the resuspended cells at the cell volume of 100 μl, followed by incubation for 15 minutes. 1 ml of binding buffer was added to the incubated cells, followed by centrifugation. The supernatant was removed to remove remaining Alexa Fluor 647-conjugated annexin V. Thereafter, 500 μl of annexin-binding buffer was further added, and cells were passed through a cell strainer cap and stored in a round-bottom tube.

[2] = system: MCF7; test: Annexin V FACS apoptosis measurement; type: cell-based; conditions: MCF7 cancer cell, 24 hours
Experimental: as §1, §2

[3] = system: cancer cells; test: Annexin V FACS, apoptotic cells in cancer cells compared with normal cells; type: cell-based; conditions: 100 μM resveratrone glucoside, 24 hours
Experimental: as §1
as §2, with “The supernatant was removed to remove remaining Alexa Fluor 647-conjugated annexin V. Thereafter, 500 μl of annexin-binding buffer was further added, and cells were passed through a cell strainer cap and stored in a round-bottom tube.” left out

[4] = system: cancer cell MCF7; test: TUNEL assay; type: cell-based; conditions: MCF7, 50 μM, 24 hours
Experimental: (§3) In detail, a cancer cell MCF7 and a normal cell MCF10A were treated with 50 μM of resveratrone or resveratrone glucoside, respectively, and incubated for 24 hours. Thereafter, the cells were treated with 0.5% PBS-Triton X-100 and incubated for 10 minutes to increase cell permeability. The cells were treated with terminal deoxynucleotide transferase and tetra-methyl-rhodamine dUTP, followed by incubation at 37° C. for 1 hour. Next, the cells were washed with PBS three times, and treated with DAPI dye for nuclear counterstaining. Apoptotic signals were observed using fluorescence images.

[5] = system: normal cell MCF10A; test: TUNEL assay; type: cell-based; conditions: 50 μM, 24 hours
Experimental: as §3

[6] = system: zebrafish embryos; test: Cytotoxicity and fluorescence in zebrafish embryos; type: in vivo; conditions: 300 μM, observed at 2 hr, 20 hr, 48 hr, 72 hr
Experimental: In detail, zebrafish embryos (donated by Hyunsook Lee Lab, School of Biological Sciences, Seoul National University) were cultured, and treated with 300 μM of resveratrone or resveratrone glucoside. At 2 hr, 20 hr, 48 hr, and 72 hr after treatment, their changes were observed.

[7] = system: HCC1954; test: Annexin V FACS apoptosis measurement; type: cell-based; conditions: HCC1954 cancer cell, 50 μM resveratrone, 24 hours
Experimental: as §1, §2

[8] = system: HeLa; test: Annexin V FACS apoptosis measurement; type: cell-based; conditions: HeLa cancer cell, 50 μM resveratrone, 24 hours
Experimental: as §1, §2

[9] = system: NIH3T3; test: Annexin V FACS apoptosis measurement; type: cell-based; conditions: NIH3T3 normal cell, 50 μM resveratrone, 24 hours
Experimental: as §1, §2

[10] = system: SW480; test: Annexin V FACS apoptosis measurement; type: cell-based; conditions: SW480 cancer cell, 50 μM resveratrone, 24 hours
Experimental: as §1, §2

[11] = system: SW620; test: Annexin V FACS apoptosis measurement; type: cell-based; conditions: SW620 cancer cell, 50 μM resveratrone, 24 hours
Experimental: as §1, §2

[12] = system: cancer cell MCF7; test: Western blotting for cleaved parp; type: cell-based; conditions: MCF7, 50 μM, 48 hours
Experimental: (§4) In detail, a cancer cell MCF7 and a normal cell MCF10A were treated with 50 μM of resveratrone, respectively, and incubated for 48 hours. The incubated cells were harvested and lysed with a NETN buffer (150 mM NaCl, 20 mM Tris/Cl pH 8.0, 0.5% v/v NP-40, 1 mM EDTA) containing a protease inhibitor, and then conjugated with a cleaved parp antibody, and sequentially, with a secondary antibody. Then, the presence or absence thereof was examined.

[13] = system: normal cell MCF10A; test: Western blotting for cleaved parp; type: cell-based; conditions: 50 μM, 48 hours
Experimental: as §4

[14] = system: cancer cell MCF7; test: Cell morphology by optical microscopy; type: cell-based; conditions: MCF7, 50 μM, 48 hours
Experimental: (§5) In detail, a normal cell MCF10A and a cancer cell MCF7 were treated with 50 μM of resveratrone, respectively, and incubated for 48 hours. After incubation, media was removed, and the cells were washed with PBS buffer three times. Changes of cell morphology in PBS buffer were observed and compared by optical microscopy.

[15] = system: normal cell MCF10A; test: Cell morphology by optical microscopy; type: cell-based; conditions: 50 μM, 48 hours
Experimental: as §5

[16] = system: organoids having G12D mutation of Kras gene; test: Apoptosis in pancreatic organoids; type: cell-based, mouse; conditions: treatment repeated after 72 hr, read 12 hr after final treatment
Experimental: In detail, as an alternative to a pancreatic tissue of a wild-type mouse and an individual with cancer, a pancreatic tissue having G12D mutation of Kras gene was obtained from a transgenic mouse, and the pancreatic tissue was dissociated with a dissociation solution, filtered. Then, a cell pellet containing ductal cells was collected by centrifugation, and incubated with a biological substrate material. The dissociation solution containing Hank's Balanced Salt Solution (HBSS) (3 ml), collagenase P (5 mg/ml), and DNase 1 (1 Units/μl) was used in a volume of 3 ml per pancreatic tissue (Vpan=about 1.08 mg/mm^3). When the collected cell pellet was incubated with the biological substrate material, three-dimensional pancreatic organoids were prepared by incubation under conditions of 37° C. and 5% CO2 with Matrigel which is a gelatinous protein mixture secreted from the murine Engelbreth-Holm-Swarm (EHS) sarcoma. Resveratrone and resveratrone glucoside were treated using DMSO as a solvent to reach a specific concentration with respect to the culture. After 72 hr, the medium was replaced by a fresh culture medium, and the above treatment was repeated. 12 hr after final treatment, changes of the organoids were recorded using an inverted fluorescence microscope (available from Zeiss) capable of photographing […] fluorescence. […]

CC(=O)/C=C/c1ccc2cc(O[C@@H]3OC(CO)[C@@H](O)C(O)C3O)cc(O)c2c1 (stereo partly drawn) [resveratrone glucoside]
Apoptotic fraction (%) ([1]; 100 μM resveratrone glucoside): 0.7%
Apoptotic fraction (%) ([2]; 100 μM resveratrone glucoside): 15.5%
increase of number of apoptotic cells in cancer cells as compared with normal cells [3]: about 22 times
TUNEL apoptotic signals [4]: observed only in the cancer cell MCF7
TUNEL apoptotic signals [5]: no effect on normal cells
cytotoxicity during development of zebrafish embryos [6]: induced no cytotoxicity

CC(=O)/C=C/c1ccc2cc(O)cc(O)c2c1 [resveratrone]
Apoptotic fraction (%) [7]: 39.3%
Apoptotic fraction (%) [8]: 20.0%
Apoptotic fraction (%) ([1]; 50 μM resveratrone): 1.0%
Apoptotic fraction (%) ([2]; 50 μM resveratrone): 26.0%
Apoptotic fraction (%) [9]: 2.0%
Apoptotic fraction (%) [10]: 15.5%
Apoptotic fraction (%) [11]: 17.4%
TUNEL apoptotic signals [4]: observed only in the cancer cell MCF7
TUNEL apoptotic signals [5]: no effect on normal cells
Cleaved parp presence [12]: observed in the resveratrone-treated cancer cells
Cleaved parp presence [13]: not observed in the resveratrone-treated normal cells
Changes of cell morphology [14]: showed morphological features of apoptosis
Changes of cell morphology [15]: clearly observed irrespective of treatment with resveratrone
cytotoxicity during development of zebrafish embryos [6]: induced no cytotoxicity
apoptosis induction in organoids [16]: showed apoptosis induction
